Target: His-tagged N-terminal ATP binding domain (amino acid residues 9-236) of HSP90α (Homo sapiens, UniProt P07900)
Assay: HSP90 inhibitor binding potency: TRF competition binding assay
Details: Table II; read-out: Hsp90 IC50 Range
Summary of the method: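 His-tagged HSP90α N-domain (residues 9-236) incubated 2 h at room temperature with biotinylated radicicol and increasing compound in 50 mM HEPES, 6 mM MgCl2, 20 mM KCl, 0.1% BSA. Bound tracer captured on streptavidin plates, detected with europium anti-His antibody by time-resolved fluorescence; IC50 derived.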

Row | IC50 [µM] | SMILES
1 | > 10 | COCc1nc(N)nc2c1C(=O)CC(c1ccccc1)C2 (stereo not shown) [Compound 211, 2-amino-4-methoxymethyl-7-phenyl-7,8-dihydro-6H-quinazolin-5-one]
2 | < 1 | Cc1nc(N)nc2c1C(=O)CC(c1ccc(F)cc1-c1cccc3ccccc13)C2 (stereo not shown) [Compound 212, 2-amino-7-(4-fluoro-2-naphthalen-1-yl-phenyl)-4-methyl-7,8-dihydro-6H-quinazolin-5-one]
3 | 1 to 10 | Cc1nc(N)nc2c1C(=O)C[C@H](c1ccc(F)cc1-c1cccc(F)n1)C2 [Compound 213, (R)-2-amino-7-[4-fluoro-2-(6-fluoro-pyridin-2-yl)-phenyl]-4-methyl-7,8-dihydro-6H-quinazolin-5-one]
4 | < 1 | Cc1nc(N)nc2c1C(=O)C[C@@H](c1ccc(F)cc1-c1cccc(F)n1)C2 [Compound 214, (S)-2-amino-7-[4-fluoro-2-(6-fluoro-pyridin-2-yl)-phenyl]-4-methyl-7,8-dihydro-6H-quinazolin-5-one]
5 | 1 to 10 | Cc1nc(N)nc2c1C(=O)CC(c1c(-c3cccnc3F)cnn1Cc1ccccc1)C2 (stereo not shown) [Compound 215, 2-amino-7-[2-benzyl-4-(2-fluoro-pyridin-3-yl)-2H-pyrazol-3-yl]-4-methyl-7,8-dihydro-6H-quinazolin-5-one]
6 | < 1 | COc1cccc(-c2ccccc2C2CC(=O)c3c(nc(N)nc3C(F)(F)F)C2)n1 (stereo not shown) [Compound 216, 2-amino-7-[2-(6-methoxy-pyridin-2-yl)-phenyl]-4-trifluoromethyl-7,8-dihydro-6H-quinazolin-5-one]
7 | < 1 | Cc1nc(N)nc2c1C(=O)CC(c1c(F)cccc1-c1cccnc1F)C2 (stereo not shown) [Compound 217, 2-amino-7-[2-fluoro-6-(2-fluoro-pyridin-3-yl)-phenyl]-4-methyl-7,8-dihydro-6H-quinazolin-5-one]
8 | < 1 | Cc1nc(N)nc2c1C(=O)CC(c1c(F)cccc1-c1cncnc1)C2 (stereo not shown) [Compound 218, 2-amino-7-(2-fluoro-6-pyrimidin-5-yl-phenyl)-4-methyl-7,8-dihydro-6H-quinazolin-5-one]
9 | < 1 | Cc1nc(N)nc2c1C(=O)CC(c1ccc(F)cc1-c1cncc(Cl)n1)C2 (stereo not shown) [Compound 219, 2-amino-7-[2-(6-chloro-pyrazin-2-yl)-4-fluoro-phenyl]-4-methyl-7,8-dihydro-6H-quinazolin-5-one]
10 | < 1 | COc1cccc(-c2cccc(F)c2C2CC(=O)c3c(C)nc(N)nc3C2)n1 (stereo not shown) [Compound 220, 2-amino-7-[2-fluoro-6-(6-methoxy-pyridin-2-yl)-phenyl]-4-methyl-7,8-dihydro-6H-quinazolin-5-one]
11 | < 1 | COc1cncc(-c2cc(F)ccc2C2CC(=O)c3c(C)nc(N)nc3C2)n1 (stereo not shown) [Compound 221, 2-amino-7-[4-fluoro-2-(6-methoxy-pyrazin-2-yl)-phenyl]-4-methyl-7,8-dihydro-6H-quinazolin-5-one]
12 | < 1 | Cc1nc(N)nc2c1C(=O)CC(c1cccc(F)c1-c1cccnc1F)C2 (stereo not shown) [Compound 222, 2-amino-7-[3-fluoro-2-(2-fluoro-pyridin-3-yl)-phenyl]-4-methyl-7,8-dihydro-6H-quinazolin-5-one]
13 | < 1 | Cc1nc(N)nc2c1C(=O)CC(c1ccc(F)cc1-c1cccc(Cl)n1)C2 (stereo not shown) [Compound 223, 2-amino-7-[2-(6-chloro-pyridin-2-yl)-4-fluoro-phenyl]-4-methyl-7,8-dihydro-6H-quinazolin-5-one]
14 | < 1 | COc1nc(-c2cc(F)ccc2C2CC(=O)c3c(C)nc(N)nc3C2)ncc1F (stereo not shown) [Compound 224, 2-amino-7-[4-fluoro-2-(5-fluoro-4-methoxy-pyrimidin-2-yl)-phenyl]-4-methyl-7,8-dihydro-6H-quinazolin-5-one]
15 | 1 to 10 | COc1cncc(-c2cc(F)ccc2[C@H]2CC(=O)c3c(C)nc(N)nc3C2)n1 [Compound 225, (R)-2-amino-7-[4-fluoro-2-(6-methoxy-pyrazin-2-yl)-phenyl]-4-methyl-7,8-dihydro-6H-quinazolin-5-one]
16 | < 1 | COc1cncc(-c2cc(F)ccc2[C@@H]2CC(=O)c3c(C)nc(N)nc3C2)n1 [Compound 226, (S)-2-amino-7-[4-fluoro-2-(6-methoxy-pyrazin-2-yl)-phenyl]-4-methyl-7,8-dihydro-6H-quinazolin-5-one]
17 | 1 to 10 | Cc1cnc(C)c(-c2cc(F)ccc2C2CC(=O)c3c(C)nc(N)nc3C2)n1 (stereo not shown) [Compound 227, 2-amino-7-[2-(3,6-dimethyl-pyrazin-2-yl)-4-fluoro-phenyl]-4-methyl-7,8-dihydro-6H-quinazolin-5-one]
18 | 1 to 10 | Cc1nc(N)nc2c1C(=O)CC(c1ccc(F)cc1-c1nccnc1Cl)C2 (stereo not shown) [Compound 228, 2-amino-7-[2-(3-chloro-pyrazin-2-yl)-4-fluoro-phenyl]-4-methyl-7,8-dihydro-6H-quinazolin-5-one]
19 | 1 to 10 | COc1nc(-c2cc(F)ccc2[C@H]2CC(=O)c3c(C)nc(N)nc3C2)ncc1F [Compound 229, (R)-2-amino-7-[4-fluoro-2-(5-fluoro-4-methoxy-pyrimidin-2-yl)-phenyl]-4-methyl-7,8-dihydro-6H-quinazolin-5-one]
20 | < 1 | COc1nc(-c2cc(F)ccc2[C@@H]2CC(=O)c3c(C)nc(N)nc3C2)ncc1F [Compound 230, (S)-2-amino-7-[4-fluoro-2-(5-fluoro-4-methoxy-pyrimidin-2-yl)-phenyl]-4-methyl-7,8-dihydro-6H-quinazolin-5-one]

Row | IC50 [µM] | SMILES
21 | < 1 | Cc1nc(N)nc2c1C(=O)CC(c1ccc(F)cc1-c1nccnc1F)C2 (stereo not shown) [Compound 231, 2-amino-7-[4-fluoro-2-(3-fluoro-pyrazin-2-yl)-phenyl]-4-methyl-7,8-dihydro-6H-quinazolin-5-one]
22 | < 1 | COc1nc(-c2cc(F)ccc2C2CC(=O)c3c(C)nc(N)nc3C2)cnc1N (stereo not shown) [Compound 232, 2-amino-7-[2-(5-amino-6-methoxy-pyrazin-2-yl)-4-fluoro-phenyl]-4-methyl-7,8-dihydro-6H-quinazolin-5-one]
23 | < 1 | COc1nc(-c2cc(F)ccc2C2CC(=O)c3c(C)nc(N)nc3C2)cnc1F (stereo not shown) [Compound 233, 2-amino-7-[4-fluoro-2-(5-fluoro-6-methoxy-pyrazin-2-yl)-phenyl]-4-methyl-7,8-dihydro-6H-quinazolin-5-one]
24 | > 10 | Cc1nc(N)nc2c1C(=O)CC(c1ncc[nH]1)C2 (stereo not shown) [Compound 234, 2-amino-7-(1H-imidazol-2-yl)-4-methyl-7,8-dihydro-6H-quinazolin-5-one]
25 | 1 to 10 | COc1cccc(-c2ccccc2C2CC(=O)c3c(C)nc(N)nc3C2)c1F (stereo not shown) [Compound 235, 2-amino-7-(2′-fluoro-3′-methoxy-biphenyl-2-yl)-4-methyl-7,8-dihydro-6H-quinazolin-5-one]
26 | 1 to 10 | Cc1nc(N)nc2c1C(=O)CC(c1c(F)cccc1Br)C2 (stereo not shown) [Compound 236, 2-amino-7-(2-bromo-6-fluoro-phenyl)-4-methyl-7,8-dihydro-6H-quinazolin-5-one]
27 | 1 to 10 | Cc1nc(N)nc2c1C(=O)CC(c1cccc(F)c1Br)C2 (stereo not shown) [Compound 237, 2-amino-7-(2-bromo-3-fluoro-phenyl)-4-methyl-7,8-dihydro-6H-quinazolin-5-one]
28 | 1 to 10 | Cc1nc(N)nc2c1C(=O)CC(c1cc(F)ccc1Br)C2 (stereo not shown) [Compound 238, 2-amino-7-(2-bromo-5-fluoro-phenyl)-4-methyl-7,8-dihydro-6H-quinazolin-5-one]
29 | 1 to 10 | COc1ccc(Br)c(C2CC(=O)c3c(C)nc(N)nc3C2)c1 (stereo not shown) [Compound 239, 2-amino-7-(2-bromo-5-methoxy-phenyl)-4-methyl-7,8-dihydro-6H-quinazolin-5-one]
30 | 1 to 10 | COc1cncc(-c2cccc(F)c2C2CC(=O)c3c(C)nc(N)nc3C2)n1 (stereo not shown) [Compound 240, 2-amino-7-[2-fluoro-6-(6-methoxy-pyrazin-2-yl)-phenyl]-4-methyl-7,8-dihydro-6H-quinazolin-5-one]
31 | > 10 | Cc1nc(N)nc2c1C(=O)C(NC(=O)c1ccccc1)C(c1ccccc1)C2 (stereo not shown) [Compound 241, N-(2-amino-4-methyl-5-oxo-7-phenyl-5,6,7,8-tetrahydro-quinazolin-6-yl)-benzamide]
32 | > 10 | Cc1nc(N)nc2c1C(=O)CC(c1ccccc1)C2NC(=O)c1ccccc1 (stereo not shown) [Compound 242, N-(2-amino-4-methyl-5-oxo-7-phenyl-5,6,7,8-tetrahydro-quinazolin-8-yl)-benzamide]
33 | < 1 | Nc1ncc2c(n1)CC(c1ccccc1-c1cccnc1F)CC2=O (stereo not shown) [Compound 243, 2-amino-7-[2-(2-fluoro-pyridin-3-yl)-phenyl]-7,8-dihydro-6H-quinazolin-5-one]
34 | > 10 | Nc1ncc2c(n1)CC(c1ccccc1Br)CC2=O (stereo not shown) [Compound 244, 2-amino-7-(2-bromo-phenyl)-7,8-dihydro-6H-quinazolin-5-one]
35 | < 1 | Nc1ncc2c(n1)CC(c1ccccc1-c1cccc(F)n1)CC2=O (stereo not shown) [Compound 245, 2-amino-7-[2-(6-fluoro-pyridin-2-yl)-phenyl]-7,8-dihydro-6H-quinazolin-5-one]
36 | < 1 | COc1cccc(-c2ccccc2C2CC(=O)c3cnc(N)nc3C2)n1 (stereo not shown) [Compound 246, 2-amino-7-[2-(6-methoxy-pyridin-2-yl)-phenyl]-7,8-dihydro-6H-quinazolin-5-one]
37 | 1 to 10 | Cc1nc(N)nc2c1C(=O)CC(c1ccccc1)C2C (stereo not shown) [Compound 247, 2-amino-4,8-dimethyl-7-phenyl-7,8-dihydro-6H-quinazolin-5-one]
38 | < 1 | Cc1nc(N)nc2c1C(=O)C(C)C(c1ccccc1)C2 (stereo not shown) [Compound 248, 2-amino-4,6-dimethyl-7-phenyl-7,8-dihydro-6H-quinazolin-5-one]
39 | < 1 | Cc1nc(N)nc2c1C(=O)CC(c1ccc(Cl)cc1-c1cccnc1F)C2 (stereo not shown) [Compound 249, 2-amino-7-[4-chloro-2-(2-fluoro-pyridin-3-yl)-phenyl]-4-methyl-7,8-dihydro-6H-quinazolin-5-one]
40 | < 1 | Cc1nc(N)nc2c1C(=O)CC(c1ccc(Cl)cc1-c1cncnc1)C2 (stereo not shown) [Compound 250, 2-amino-7-(4-chloro-2-pyrimidin-5-yl-phenyl)-4-methyl-7,8-dihydro-6H-quinazolin-5-one]

Source: patent US20070027150A1 (priority 2005, published 2007)
